According to US12428415B2, “Matriptase 2 inhibitors and uses thereof” (Disc Medicine, Inc., priority 2018, dated 2025):

Target: T1, Human Recombinant Matriptase 2 (Homo sapiens, UniProt Q8IU80)
T1 construct: purchased Enzo Life Sciences (an in-house preparation was also used) ALX-201-752-1
T1 sequence (Q8IU80 1-811): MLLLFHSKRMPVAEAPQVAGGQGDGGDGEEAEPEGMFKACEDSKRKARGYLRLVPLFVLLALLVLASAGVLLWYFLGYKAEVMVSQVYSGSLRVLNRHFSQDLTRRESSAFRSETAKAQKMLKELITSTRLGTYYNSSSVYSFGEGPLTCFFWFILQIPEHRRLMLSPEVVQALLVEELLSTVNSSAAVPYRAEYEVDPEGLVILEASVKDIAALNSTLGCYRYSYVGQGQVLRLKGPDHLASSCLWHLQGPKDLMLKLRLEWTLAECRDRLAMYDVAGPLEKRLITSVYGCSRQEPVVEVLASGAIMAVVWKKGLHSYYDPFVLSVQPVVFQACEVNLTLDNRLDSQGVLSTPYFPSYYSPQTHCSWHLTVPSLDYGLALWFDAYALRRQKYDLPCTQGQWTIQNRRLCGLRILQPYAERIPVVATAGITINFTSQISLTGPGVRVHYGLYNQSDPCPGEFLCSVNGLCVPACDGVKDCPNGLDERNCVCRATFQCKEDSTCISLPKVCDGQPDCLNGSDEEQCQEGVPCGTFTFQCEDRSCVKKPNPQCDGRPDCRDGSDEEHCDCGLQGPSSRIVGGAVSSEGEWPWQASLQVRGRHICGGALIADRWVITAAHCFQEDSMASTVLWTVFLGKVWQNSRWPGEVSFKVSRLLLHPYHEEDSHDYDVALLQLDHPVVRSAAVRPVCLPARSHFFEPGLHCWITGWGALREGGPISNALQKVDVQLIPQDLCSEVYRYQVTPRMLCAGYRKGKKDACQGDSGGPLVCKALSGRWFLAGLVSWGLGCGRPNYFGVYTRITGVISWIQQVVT
Assay: Matriptase 2 fluorescence based inhibition assay, Method A (100 mM TRIS pH 9, 1 mg/mL BSA)
Assay type: biochemical
Conditions: at 1 uM; Assay Used = A; read-out: Mar-2 % inhibition at 1 uM
Summary of the method: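 Enzyme (7 nM commercial or 15 nM in-house) preincubated 30 min with compound in 100 mM TRIS pH 9, 1 mg/mL BSA, 1% DMSO at 25° C. Boc-Gln-Ala-Arg-AMC substrate at 100 μM; fluorescence (Ex 360/Em 480 nm) read 60 min later. Screened at 1 and 10 μM; IC50 from variable-slope sigmoidal fit.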

SMILES | inhibition at 1 µM [%]
N=C(N)c1ccc2cc(C(=O)N3CCC(F)(F)C3)n(Cc3ccc(Oc4ccccc4)cc3)c2c1 [Compound I-314] | 0 to 25
N=C(N)c1ccc2cc(C(=O)N3CCCC(F)(F)C3)n(Cc3ccc(Oc4ccccc4)cc3)c2c1 [Compound I-315] | 0 to 25
N=C(N)c1ccc2cc(C(=O)N3CCC(CCN)CC3)n(Cc3ccc(Oc4ccc(F)cc4)cc3)c2c1 [Compound I-316] | 0 to 25
N=C(N)c1ccc2cc(C(=O)N3CCC(CCN)CC3)n(Cc3ccc(Oc4ccc(F)cc4)nc3)c2c1 [Compound I-317] | 25 to 50
N=C(N)c1ccc2cc(C(=O)N3CCC(CCN)CC3)n(Cc3ccc(Oc4cccc(C(F)(F)F)c4)cc3)c2c1 [Compound I-319] | 25 to 50
N=C(N)c1ccc2cc(C(=O)N3CCC(CCCC(N)=O)CC3)n(Cc3ccc(C(F)(F)F)cc3)c2c1 [Compound I-322] | 0 to 25
N=C(N)c1ccc2cc(C(=O)N3CCC(F)(F)C3)n(Cc3cccc(C(N)=O)c3)c2c1 [Compound I-324] | 0 to 25
N=C(N)c1ccc2cc(C(=O)N3CCC[C@@H](CF)C3)n(Cc3cccc(C(N)=O)c3)c2c1 [Compound I-325] | 0 to 25
N=C(N)c1ccc2cc(C(=O)N3CCC(F)(F)CC3)n(Cc3ccc(C(N)=O)cc3)c2c1 [Compound I-327] | 0 to 25
N=C(N)c1ccc2cc(C(=O)N3CCCC(F)(F)C3)n(Cc3ccc(C(N)=O)cc3)c2c1 [Compound I-328] | 0 to 25
N=C(N)c1ccc2cc(C(=O)N3CCC(C(F)(F)F)CC3)n(Cc3ccc(C(N)=O)cc3)c2c1 [Compound I-329] | 0 to 25
N=C(N)c1ccc2cc(C(=O)N3CC[C@H](F)C3)n(Cc3ccc(C(N)=O)cc3)c2c1 [Compound I-330] | 0 to 25
N=C(N)c1ccc2cc(C(=O)N3CCC(F)(F)C3)n(Cc3ccc(C(N)=O)cc3)c2c1 [Compound I-331] | 0 to 25
N=C(N)c1ccc2cc(C(=O)N3CCC[C@H](CF)C3)n(Cc3ccc(C(N)=O)cc3)c2c1 [Compound I-332] | 0 to 25
N=C(N)c1ccc2cc(C(=O)N3CC[C@@H](N4CCOCC4)C3)n(Cc3ccc(C(N)=O)cc3)c2c1 [Compound I-333] | 0 to 25
N=C(N)c1ccc2cc(C(=O)N3CCC(CCN)CC3)n(S(=O)(=O)c3ccc4ccccc4c3)c2c1 [Compound I-335] | 0 to 25

SMILES | inhibition at 1 µM [%]
N=C(N)c1ccc2cc(C(=O)N3CCCC4CCCCC43)n(CCS(=O)(=O)c3ccccc3)c2c1 (stereo not shown) [Compound I-338] | 0 to 25
N=C(N)c1ccc2cc(C(=O)N3CCC4CCCCC4C3)n(CCS(=O)(=O)c3ccccc3)c2c1 (stereo not shown) [Compound I-339] | 0 to 25
N=C(N)c1ccc2cc(C(=O)N3CCC(F)(F)C3)n(CCS(=O)(=O)c3ccccc3)c2c1 [Compound I-342] | 0 to 25
CC(C)CCn1c(C(=O)N2CCC(CCN)CC2)c(N)c2ccc(C(=N)N)cc21 [Compound I-345, 3-Amino-2-(4-(2-aminoethyl)piperidine-1-carbonyl)-1-isopentyl-1H-indole-6-carboximidamide] | 25 to 50
CCOC(=O)c1ccc(Cn2c(C(=O)N3CCC(CCN)CC3)c(N)c3ccc(C(=N)N)cc32)cc1 [Compound I-346] | 0 to 25
N=C(N)c1ccc2c(N)c(C(=O)N3CCC(CCNC(=O)O)CC3)n(Cc3ccc(Oc4ccccc4)cc3)c2c1 [Compound I-347] | 0 to 25
N=C(N)c1ccc2c(N)c(C(=O)N3CCC(CCN)CC3)n(Cc3ccc(Oc4ccccc4)cc3)c2c1 [Compound I-348] | 0 to 25
N=C(N)c1ccc2c(N)c(C(=O)N3CCC(CCN)CC3)n(CCS(=O)(=O)c3ccccc3)c2c1 [Compound I-349, 3-Amino-2-(4-(2-aminoethyl)piperidine-1-carbonyl)-1-(2-(phenylsulfonyl)ethyl)-1H-indole-6-carboximidamide] | 25 to 50
N=C(N)c1ccc2c(N)c(C(=O)N3CCC4CCCCC4C3)n(CCS(=O)(=O)c3ccccc3)c2c1 (stereo not shown) [Compound I-351] | 0 to 25
N=C(N)c1ccc2c(N)c(C(=O)N3CCc4ccccc4C3)n(CCS(=O)(=O)c3ccccc3)c2c1 [Compound I-352] | 0 to 25
N=C(N)c1ccc2c(Cl)c(C(=O)N3CCC(F)CC3)n(Cc3ccc(-c4ccccc4)cc3)c2c1 [Compound I-353, 1-([1,1′-Biphenyl]-4-ylmethyl)-3-chloro-2-(4-fluoropiperidine-1-carbonyl)-1H-indole-6-carboximidamide] | 0 to 25
N=C(N)c1ccc2c(Cl)c(C(=O)N3CCC(F)(F)C3)n(Cc3ccc(C(N)=O)cc3)c2c1 [Compound I-354] | 0 to 25
N=C(N)c1ccc2c(Cl)c(C(=O)N3CCC(F)CC3)n(Cc3ccc(C(N)=O)cc3)c2c1 [Compound I-355] | 0 to 25
N=C(N)c1ccc2cc(C(=O)N3CCc4ccccc4C3)n(Cc3cccc(NC(=O)CCN)c3)c2c1 [Compound I-365] | 0 to 25
N=C(N)c1ccc2cc(C(=O)N3CCC(F)(F)C3)n(Cc3cccc(NC(=O)CCN)c3)c2c1 [Compound I-369] | 0 to 25
N=C(N)c1ccc2cc(C(=O)N3CCC(F)(F)CC3)n(Cc3ccc(NC(=O)CCN)cc3)c2c1 [Compound I-374] | 0 to 25

Second part, the compound after the results:

inhibition at 1 µM [%] | SMILES
25 to 50 | N=C(N)c1ccc2cc(C(=O)N3CCC(CCN)CC3)n(Cc3cccc(Oc4ccccc4)c3)c2c1 [Compound I-321]
0 to 25 | N=C(N)c1ccc2cc(C(=O)N3CCC(F)C3)n(Cc3cccc(C(N)=O)c3)c2c1 (stereo not shown) [Compound I-323, 3-((6-Carbamimidoyl-2-(3-fluoropyrrolidine-1-carbonyl)-1H-indol-1-yl)methyl)benzamide]
0 to 25 | N=C(N)c1ccc2cc(C(=O)N3CCC(F)CC3)n(Cc3ccc(C(N)=O)cc3)c2c1 [Compound I-326]
0 to 25 | N=C(N)c1ccc2cc(C(=O)N3CCC(CCN)CC3)n(S(=O)(=O)Cc3ccccc3)c2c1 [Compound I-336]
0 to 25 | N=C(N)c1ccc2cc(C(=O)N3CCC(CCN)CC3)n(CCS(=O)(=O)c3ccccc3)c2c1 [Compound I-337]
0 to 25 | CC1CCN(C(=O)c2cc3ccc(C(=N)N)cc3n2CCS(=O)(=O)c2ccccc2)CC1 [Compound I-340]
0 to 25 | N=C(N)c1ccc2cc(C(=O)N3CC[C@@H](F)C3)n(CCS(=O)(=O)c3ccccc3)c2c1 [Compound I-341]
0 to 25 | N=C(N)c1ccc2cc(C(=O)N3CCC(F)CC3)n(CCS(=O)(=O)c3ccccc3)c2c1 [Compound I-343]
0 to 25 | N=C(N)c1ccc2cc(C(=O)N3CCC(F)(F)CC3)n(CCS(=O)(=O)c3ccccc3)c2c1 [Compound I-344]
0 to 25 | N=C(N)c1ccc2cc(C(=O)N3CCC(C(=O)NCCCN)CC3)n(Cc3ccc(C(F)(F)F)cc3)c2c1 [Compound I-356, N-(3-Aminopropyl)-1-(6-carbamimidoyl-1-(4-(trifluoromethyl)benzyl)-1H-indole-2-carbonyl)-piperidine-4-carboxamide]
0 to 25 | N=C(N)c1ccc2cc(C(=O)N3CCC(C(=O)NCCN)CC3)n(CCc3ccccc3)c2c1 [Compound I-357]
25 to 50 | N=C(N)c1ccc2cc(C(=O)N3CCC(C(=O)NCCCN)CC3)n(CCc3ccccc3)c2c1 [Compound I-358]
25 to 50 | N=C(N)NCCCNC(=O)C1CCN(C(=O)c2cc3ccc(C(=N)N)cc3n2Cc2ccc(C(F)(F)F)cc2)CC1 [Compound I-359, 1-(6-Carbamimidoyl-1-(4-(trifluoromethyl)benzyl)-1H-indole-2-carbonyl)-N-(3-guanidinopropyl)-piperidine-4-carboxamide]
25 to 50 | N=C(N)NCCC1CCN(C(=O)c2cc3ccc(C(=N)N)cc3n2Cc2ccc3ccccc3c2)CC1 [Compound I-360]
0 to 25 | N=C(N)NCCC1CCN(C(=O)c2cc3ccc(C(=N)N)cc3n2Cc2ccc(-c3ccccc3)cc2)CC1 [Compound I-361]
0 to 25 | N=C(N)c1ccc2cc(C(=O)N3CCC(F)CC3)n(Cc3cccc(NC(=O)CCN)c3)c2c1 [Compound I-366]
0 to 25 | N=C(N)c1ccc2cc(C(=O)N3CCC(F)(F)CC3)n(Cc3cccc(NC(=O)CCN)c3)c2c1 [Compound I-367]
0 to 25 | N=C(N)c1ccc2cc(C(=O)N3CC[C@H](F)C3)n(Cc3cccc(NC(=O)CCN)c3)c2c1 [Compound I-368]
25 to 50 | N=C(N)c1ccc2cc(C(=O)N3CCC(CCN)CC3)n(Cc3ccc(NC(=O)CCCN)cc3)c2c1 [Compound I-372]
0 to 25 | N=C(N)c1ccc2cc(C(=O)N3CCC(F)CC3)n(Cc3ccc(NC(=O)CCN)cc3)c2c1 [Compound I-373]
